Patent US20190015505A1, “Method of Mediating Cardiovascular Hypertrophy and Perivascular Fibrosis Induced by Angiotensin II” (UNIVERSITY OF MACAU, priority 2017, published 2019)

What was measured:
[1] = tested on: VSMCs stimulated with AngII; assay: Pro-fibrotic response: extracellular collagen content (Sirius Red kit) in VSMCs stimulated with AngII; format: cell-based; conditions: rat VSMCs, 100 nM AngII 48 hours; JG26 1 ̂mol/L, erlotinib 1 ̂mol/L, PBA 10 mmol/L pretreated 30 min; adenovirus 100 m.o.i.
Description: (§1) VSMCs were prepared from thoracic aortas of male Sprague-Dawley rats by the explant method as described previously^21. VSMCs were subcultured in DMEM containing 10% fetal bovine serum, penicillin and streptomycin. Cells from passage 3 to 10 at 80˜90% confluence were made quiescent by incubation with serum-free medium for 2-3 days.
To evaluate pro-fibrotic response, serum-starved VSMCs were stimulated with 100 nM AngII for 48 hours and extracellular cellular collagen content was quantified by Sirius Red collagen quantification kit (Chondrex) according to the manufacture's protocol. Recombinant adenoviral vector encoding rat ADAM17 siRNA was created and specificity and efficiency has been reported^11. VSMCs were infected with 100 m.o.i. adenovirus prior to the AngII stimulation as reported previously^11. ADAM17 selective inhibitor compound #21 (JG26)^8 was generated as reported. VSMCs were pretreated
with 1 ̂mol/L JG26 or vehicle (0.1% DMSO in final) for 30 min prior to the AngII stimulation. 4-phenylbutyrate (PBA) was obtained from Scandinavian Formulas and solubilized in DMEM. VSMCs were pretreated with 10 mmol/L PBA for 30 min.
Erlotinib (OSI Pharmaceuticals) was obtained from Genentech. VSMCs were pretreated with 1 ̂mol/L erlotinib for 30 min.
To test for the role of ADAM17 in AngII-induced vascular fibrosis, extracellular collagen content was evaluated in VSMCs stimulated with AngII. Adenovirus encoding ADAM17 siRNA^11 attenuated the AngII-induced enhancement in collagen content (FIG. 4A and 4B). Treatment of VSMCs with ADAM17 antibody A9B8, a highly-selective ADAM17 inhibitor JG26/compound 21^22, an EGFR kinase inhibitor erlotinib or a chemical ER chaperone PBA also attenuated AngII-induced enhancement in collagen content (FIG. 4C). As shown with the ADAM17 siRNA^11, A9B8 as well as JG26 inhibited AngII-induced EGFR transactivation assessed with an auto-phosphorylation site antibody (FIG. 4D).

[2] = tested on: EGFR; assay: AngII-induced EGFR transactivation in VSMCs, immunoblotting with auto-phosphorylation site antibody; format: cell-based; conditions: rat VSMCs, 100 nM AngII, auto-phosphorylation site antibody (Tyr1068)
Description: as §1
Immunoblotting (IB) was performed as previously described^21. Quiescent VSMCs grown on 6-well plates were stimulated with 100 nM AngII (Sigma) for specified durations. The reaction was terminated by the replacement of medium with 100 ̂L of 1xSDS lysis buffer. 40 ̂L of the cell lysates were subjected to SDS-PAGE gel electrophoresis and electrophoretically transferred to a nitrocellulose membrane. The membranes were then exposed to primary antibodies overnight at 4° C. After incubation with the peroxidase linked secondary antibody for 1 h at room temperature, immunoreactive proteins were visualized using a chemiluminescence reaction kit. […]
To test for the role of ADAM17 in AngII-induced vascular fibrosis, extracellular collagen content was evaluated in VSMCs stimulated with AngII. […] As shown with the ADAM17 siRNA^11, A9B8 as well as JG26 inhibited AngII-induced EGFR transactivation assessed with an auto-phosphorylation site antibody (FIG. 4D).

Molecule | AngII-induced enhancement in collagen content [1] | AngII-induced EGFR transactivation [2]
NC(=O)NCCC[C@@H](NS(=O)(=O)c1ccc(OCc2cc(Br)cc(Br)c2)cc1)C(=O)NO [JG26, reference compound] | attenuated | inhibited
4-phenylbutyrate [PBA] | attenuated | –
C#Cc1cccc(Nc2ncnc3cc(OCCOC)c(OCCOC)cc23)c1 [erlotinib, Erlotinib] | attenuated | –
